Laboratory results taken from paper PMC12291762 (Antioxidants, 2025).

What was measured:
[1] = tested on: carrageenan-induced rat paw edema; test: Carrageenan-induced rat paw edema model of acute inflammation; assay type: in vivo, Wistar albino rats; settings: for % of inhibition of paw edema, 1 h / Rat paw thickness, 1 h / % of inhibition of paw edema, 2 h / Rat paw thickness, 2 h / % of inhibition of paw edema, 3 h / Rat paw thickness, 3 h / % of inhibition of paw edema, 4 h / Rat paw thickness, 4 h / Anti-inflammatory effect on edema diameter compared to the control group (significance): 0.0315 mmol/kg i.p.; for % of inhibition of paw edema, 1 h / % of inhibition of paw edema, 2 h / % of inhibition of paw edema, 3 h / % of inhibition of paw edema, 4 h: vs solvent group; for Rat paw thickness, 1 h: 1 h post-carrageenan; for Rat paw thickness, 1 h / Rat paw thickness, 2 h / Rat paw thickness, 3 h / Rat paw thickness, 4 h / Rat paw thickness, 0 h: mean ± SD; for Rat paw thickness, 2 h: 2 h post-carrageenan; for Rat paw thickness, 3 h: 3 h post-carrageenan; for Rat paw thickness, 4 h: 4 h post-carrageenan; for Anti-inflammatory effect on edema diameter compared to the control group (significance): from 2nd hour to end of observation; for Rat paw thickness, 0 h: immediately before inflammation induction
Protocol: Inflammation was induced in all rats by an intraplantar injection of 100 μL of freshly prepared 1% carrageenan solution in distilled water into the left hind paw. A total of 56 male Wistar albino rats were randomly divided into five experimental groups (n = 40 rats, 8 rats per subgroup) and two control groups (n = 16 rats, 8 rats per subgroup).
The experimental groups consisted of rats that received synthesized compounds via intraperitoneal injection immediately following carrageenan administration. The solutions of the investigated molecules were prepared by dissolving the compound in distilled water with the addition of a few drops of Tween 80 [18], whereby each rat received 500 μL of the prepared solution. […] The negative control group included rats that received an intraperitoneal injection of the solvent solution (distilled water with a few drops of Tween 80) at the same time point.
To quantify the anti-edematous effect, the thickness of the left paw tissue of each rat was measured at specific time intervals: immediately before inflammation induction (moment 0) and at 1, 2, 3, and 4 h post-induction (moments 1, 2, 3, and 4, respectively). Tissue thickness was assessed in the middle of the rat paw using a digital vernier caliper (Aerospace, Beijing, China).

[2] = target: T1, COX-2 (Homo sapiens, UniProt P35354); test: Fluorometric COX-2 inhibitor screening kit; assay type: biochemical; settings: mean ± standard error, three independent measurements
T1 construct: purchased Abcam ab283401
T1 sequence (P35354 18-604): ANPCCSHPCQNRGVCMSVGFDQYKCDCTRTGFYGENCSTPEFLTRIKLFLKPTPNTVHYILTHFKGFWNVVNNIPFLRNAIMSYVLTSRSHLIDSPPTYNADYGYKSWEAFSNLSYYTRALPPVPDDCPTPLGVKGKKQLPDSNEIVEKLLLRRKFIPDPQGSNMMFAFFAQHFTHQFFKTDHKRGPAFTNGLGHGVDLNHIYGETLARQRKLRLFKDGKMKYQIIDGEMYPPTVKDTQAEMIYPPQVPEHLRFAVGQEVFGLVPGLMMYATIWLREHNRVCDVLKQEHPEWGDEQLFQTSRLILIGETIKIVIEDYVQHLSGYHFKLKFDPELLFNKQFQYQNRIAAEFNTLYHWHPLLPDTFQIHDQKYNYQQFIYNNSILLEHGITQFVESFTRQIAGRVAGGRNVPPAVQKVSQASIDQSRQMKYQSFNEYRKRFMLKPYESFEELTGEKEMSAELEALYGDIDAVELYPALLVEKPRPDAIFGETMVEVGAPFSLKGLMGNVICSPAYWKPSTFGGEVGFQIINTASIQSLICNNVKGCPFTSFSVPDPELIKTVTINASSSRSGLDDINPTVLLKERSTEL
Protocol: (§1) The inhibitory activity of the tested compounds against COX-1 and COX-2 isoforms was assessed using fluorometric cyclooxygenase inhibitor screening kits (Catalog Numbers ab204698 and ab283401, respectively; Abcam, Cambridge, UK). These assays detect the formation of prostaglandin G2, a product of COX enzymatic activity, via fluorometric measurement.
(§2) Stock solutions of the test compounds were prepared at a concentration of 5 mM in DMSO and subsequently diluted with the same solvent to obtain the test solutions. For the assay preparation, 2 μL of each test solution was diluted with 8 μL of COX assay buffer. The solvent control (SC) consisted of 2 μL of DMSO and 8 μL of assay buffer, while the enzyme control (EC) contained 10 μL of assay buffer alone. Sample wells (S) received 10 μL of the diluted test solutions. All other steps were in accordance with the manufacturer’s protocol and the previously published article. Fluorescence was measured kinetically over a 10 min period at 25 °C, using the excitation and emission wavelengths of 535 nm and 587 nm, respectively. The percentage of inhibition was calculated as follows:(3) % Relative Inhibition=Slope of EC−Slope of S/Slope of EC×100
(§3) Fluorescence measurements were conducted on a BioTek Synergy LX multi-mode reader (Winooski, VT, USA).

[3] = target: T2, COX-1 (Ovis aries, UniProt P05979); test: Fluorometric COX-1 inhibitor screening kit; assay type: biochemical; set-up: purchased Abcam ab204698; settings: mean ± standard error, three independent measurements
T2 sequence (P05979 25-600): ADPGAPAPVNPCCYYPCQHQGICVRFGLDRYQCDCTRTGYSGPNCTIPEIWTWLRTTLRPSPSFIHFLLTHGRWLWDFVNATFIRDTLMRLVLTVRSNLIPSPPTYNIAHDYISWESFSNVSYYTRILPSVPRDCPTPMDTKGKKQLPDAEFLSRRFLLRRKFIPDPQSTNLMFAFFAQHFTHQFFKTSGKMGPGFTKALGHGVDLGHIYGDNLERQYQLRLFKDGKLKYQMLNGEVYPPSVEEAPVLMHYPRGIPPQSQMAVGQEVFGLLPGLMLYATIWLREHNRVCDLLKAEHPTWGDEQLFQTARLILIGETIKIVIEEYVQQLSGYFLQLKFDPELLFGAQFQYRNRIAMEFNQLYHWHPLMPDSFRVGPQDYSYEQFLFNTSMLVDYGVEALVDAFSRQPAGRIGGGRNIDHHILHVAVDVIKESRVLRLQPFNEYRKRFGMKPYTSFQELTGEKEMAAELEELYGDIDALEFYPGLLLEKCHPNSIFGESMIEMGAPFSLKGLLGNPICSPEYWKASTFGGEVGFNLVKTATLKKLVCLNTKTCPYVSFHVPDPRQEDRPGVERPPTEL
Protocol: as §1
as §2, with “Fluorescence was measured kinetically over a 10 min period at 25 °C, using the excitation and emission wavelengths of 535 nm and 587 nm, respectively.” left out
as §3

| SMILES | % of inhibition of paw edema, 1 h [1] [%] | Rat paw thickness, 1 h [1] [mm] | % of inhibition of paw edema, 2 h [1] [%] | Rat paw thickness, 2 h [1] [mm] | % of inhibition of paw edema, 3 h [1] [%] | Rat paw thickness, 3 h [1] [mm] | % of inhibition of paw edema, 4 h [1] [%] | Rat paw thickness, 4 h [1] [mm] | Anti-inflammatory effect on edema diameter compared to the control group (significance) [1] | Rat paw thickness, 0 h [1] [mm] | IC50 [2] [µM] | IC50 [3] [µM] |
| --- | --- | --- | --- | --- | --- | --- | --- | --- | --- | --- | --- | --- |
| C[C@H](C(=O)NCC(=O)O)c1cccc(C(=O)c2ccccc2)c1 [Compound 1, (S)-(2-(3-benzoylphenyl)propanoyl)glycine] | 5.263 | 5.68 ± 0.25 | 13.669 | 5.58 ± 0.34 | 16.842 | 5.16 ± 0.34 | 18.824 | 4.50 ± 0.29 | did not achieve an anti-inflammatory effect at any measurement times | 3.58 ± 0.13 | > 100 | > 100 |
| C[C@H](NC(=O)[C@@H](C)c1cccc(C(=O)c2ccccc2)c1)C(=O)O [Compound 2, ((S)-2-(3-benzoylphenyl)propanoyl)-L-alanine] | 16.090 | 6.52 ± 0.28 | 26.619 | 6.36 ± 0.25 | 33.684 | 5.92 ± 0.19 | 62.941 | 5.08 ± 0.54 | significantly reduced the edema diameter | 4.66 ± 0.13 | > 100 | > 100 |
| C[C@H](C(=O)N[C@@H](Cc1ccccc1)C(=O)O)c1cccc(C(=O)c2ccccc2)c1 [Compound 3, ((S)-2-(3-benzoylphenyl)propanoyl)-L-phenylalanine] | 10.526 | 6.25 ± 0.25 | 20.863 | 6.10 ± 0.18 | 22.807 | 5.73 ± 0.23 | – | 4.93 ± 0.37 | – | 4.27 ± 0.21 | > 100 | > 100 |
| C[C@H](C(=O)N[C@@H](Cc1c[nH]c2ccccc12)C(=O)O)c1cccc(C(=O)c2ccccc2)c1 [Compound 4, ((S)-2-(3-benzoylphenyl)propanoyl)-L-tryptophan] | 15.038 | 5.90 ± 0.37 | 24.460 | 5.77 ± 0.36 | 28.070 | 5.38 ± 0.34 | 58.824 | 4.48 ± 0.33 | significantly reduced the edema diameter | 4.02 ± 0.12 | 37.5 ± 3.43 | > 100 |
| C[C@H](C(=O)NCCCC(=O)O)c1cccc(C(=O)c2ccccc2)c1 [Compound 5, (S)-4-(2-(3-benzoylphenyl)propanamido)butanoic acid] | 7.068 | 5.52 ± 0.25 | 17.122 | 5.38 ± 0.48 | 18.947 | 5.00 ± 0.29 | 27.647 | 4.28 ± 0.37 | – | 3.46 ± 0.29 | > 100 | > 100 |
